Measurements as given in the supplement of paper PMC10307832.

Key:
Metformin + Trametinib = compound: CN(C)C(=N)NC(=N)N [Metformin] + CC(=O)Nc1cccc(-n2c(=O)n(C3CC3)c(=O)c3c(Nc4ccc(I)cc4F)n(C)c(=O)c(C)c32)c1 [Trametinib] (partner 0.02 µM); experiment: relative viability (nuclei count vs DMSO), 5 days (fraction); higher = more cells survive
In short: (§1)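 One day after seeding in 1536-well plates, lung cancer cell lines were dosed by pin tool. Dosing was either single-drug or a fixed anchor-drug dose plus five library-drug doses (not always all listed) in √10 steps. After 5 days, nuclei were stained in one fix-and-stain step and counted on 4× images, and relative viability is the nuclei count of treated wells over that of vehicle wells, given as the median of duplicate plates.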

Apatinib + Dasatinib = compound: N#CC1(c2ccc(NC(=O)c3cccnc3NCc3ccncc3)cc2)CCCC1 [Apatinib] + Cc1nc(Nc2ncc(C(=O)Nc3c(C)cccc3Cl)s2)cc(N2CCN(CCO)CC2)n1 [Dasatinib] (partner 0.075 µM); experiment: as above
In short: as §1

LU99A was tested, and the relative viability (Metformin + Trametinib; first compound 10 µM) was 0.524, the relative viability (Metformin + Trametinib; first compound 31.62 µM) was 0.482 and the relative viability (Metformin + Trametinib; first compound 100 µM) was 0.544. For the same cell line, the relative viability (Metformin + Trametinib; first compound 316.23 µM) was 0.433, the relative viability (Metformin + Trametinib; first compound 1000 µM) was 0.448 and the relative viability (Apatinib + Dasatinib; first compound 0.08 µM) was 0.526. For the same cell line, the relative viability (Apatinib + Dasatinib; first compound 0.253 µM) was 0.565, the relative viability (Apatinib + Dasatinib; first compound 0.8 µM) was 0.523 and the relative viability (Apatinib + Dasatinib; first compound 2.53 µM) was 0.486. It also gave a relative viability (Apatinib + Dasatinib; first compound 8 µM) of 0.416.

Work on HCC-827 yielded a relative viability (Metformin + Trametinib; first compound 10 µM) of 0.575, a relative viability (Metformin + Trametinib; first compound 31.62 µM) of 0.567 and a relative viability (Metformin + Trametinib; first compound 100 µM) of 0.616. The relative viability (Metformin + Trametinib; first compound 316.23 µM) was 0.577, the relative viability (Metformin + Trametinib; first compound 1000 µM) was 0.605 and the relative viability (Apatinib + Dasatinib; first compound 0.08 µM) was 0.287. The relative viability (Apatinib + Dasatinib; first compound 0.253 µM) was 0.326, the relative viability (Apatinib + Dasatinib; first compound 0.8 µM) was 0.273 and the relative viability (Apatinib + Dasatinib; first compound 2.53 µM) was 0.236. For the same cell line, the relative viability (Apatinib + Dasatinib; first compound 8 µM) was 0.231.

With BEN the relative viability (Metformin + Trametinib; first compound 10 µM) was 1.25, the relative viability (Metformin + Trametinib; first compound 31.62 µM) was 1.5 and the relative viability (Metformin + Trametinib; first compound 100 µM) was 1.43. The relative viability (Metformin + Trametinib; first compound 316.23 µM) was 1.13, the relative viability (Metformin + Trametinib; first compound 1000 µM) was 1.21 and the relative viability (Apatinib + Dasatinib; first compound 0.08 µM) was 0.251. The relative viability (Apatinib + Dasatinib; first compound 0.253 µM) was 0.27, the relative viability (Apatinib + Dasatinib; first compound 0.8 µM) was 0.245 and the relative viability (Apatinib + Dasatinib; first compound 2.53 µM) was 0.242. For the same cell line, the relative viability (Apatinib + Dasatinib; first compound 8 µM) was 0.265.

With NCI-H1755 the relative viability (Metformin + Trametinib; first compound 10 µM) was 0.683, the relative viability (Metformin + Trametinib; first compound 31.62 µM) was 0.626 and the relative viability (Metformin + Trametinib; first compound 100 µM) was 0.656. It also gave a relative viability (Metformin + Trametinib; first compound 316.23 µM) of 0.682, a relative viability (Metformin + Trametinib; first compound 1000 µM) of 0.676 and a relative viability (Apatinib + Dasatinib; first compound 0.08 µM) of 0.524. The relative viability (Apatinib + Dasatinib; first compound 0.253 µM) was 0.484, the relative viability (Apatinib + Dasatinib; first compound 0.8 µM) was 0.451 and the relative viability (Apatinib + Dasatinib; first compound 2.53 µM) was 0.394. For the same cell line, the relative viability (Apatinib + Dasatinib; first compound 8 µM) was 0.399.

For LOU-NH91, the relative viability (Metformin + Trametinib; first compound 10 µM) was 0.732, the relative viability (Metformin + Trametinib; first compound 31.62 µM) was 0.76 and the relative viability (Metformin + Trametinib; first compound 100 µM) was 0.786. For the same cell line, the relative viability (Metformin + Trametinib; first compound 316.23 µM) was 0.766, the relative viability (Metformin + Trametinib; first compound 1000 µM) was 0.761 and the relative viability (Apatinib + Dasatinib; first compound 0.08 µM) was 0.505. For the same cell line, the relative viability (Apatinib + Dasatinib; first compound 0.253 µM) was 0.552, the relative viability (Apatinib + Dasatinib; first compound 0.8 µM) was 0.498 and the relative viability (Apatinib + Dasatinib; first compound 2.53 µM) was 0.528. For the same cell line, the relative viability (Apatinib + Dasatinib; first compound 8 µM) was 0.471.

LC-2-ad showed a relative viability (Metformin + Trametinib; first compound 31.62 µM) of 0.81, a relative viability (Metformin + Trametinib; first compound 100 µM) of 0.827 and a relative viability (Metformin + Trametinib; first compound 316.23 µM) of 0.81. It also gave a relative viability (Metformin + Trametinib; first compound 1000 µM) of 0.857, a relative viability (Apatinib + Dasatinib; first compound 0.08 µM) of 0.718 and a relative viability (Apatinib + Dasatinib; first compound 0.253 µM) of 0.774. For the same cell line, the relative viability (Apatinib + Dasatinib; first compound 0.8 µM) was 0.511, the relative viability (Apatinib + Dasatinib; first compound 2.53 µM) was 0.391 and the relative viability (Apatinib + Dasatinib; first compound 8 µM) was 0.4.

ChaGo-K-1 gave a relative viability (Metformin + Trametinib; first compound 10 µM) of 0.923, a relative viability (Metformin + Trametinib; first compound 31.62 µM) of 0.895 and a relative viability (Metformin + Trametinib; first compound 100 µM) of 0.909. For the same cell line, the relative viability (Metformin + Trametinib; first compound 316.23 µM) was 0.729, the relative viability (Metformin + Trametinib; first compound 1000 µM) was 0.902 and the relative viability (Apatinib + Dasatinib; first compound 0.08 µM) was 0.603. For the same cell line, the relative viability (Apatinib + Dasatinib; first compound 0.253 µM) was 0.535, the relative viability (Apatinib + Dasatinib; first compound 0.8 µM) was 0.642 and the relative viability (Apatinib + Dasatinib; first compound 2.53 µM) was 0.547. It also gave a relative viability (Apatinib + Dasatinib; first compound 8 µM) of 0.501.

COR-L 105 showed a relative viability (Metformin + Trametinib; first compound 10 µM) of 0.428, a relative viability (Metformin + Trametinib; first compound 31.62 µM) of 0.479 and a relative viability (Metformin + Trametinib; first compound 100 µM) of 0.511. It also gave a relative viability (Metformin + Trametinib; first compound 316.23 µM) of 0.454, a relative viability (Metformin + Trametinib; first compound 1000 µM) of 0.489 and a relative viability (Apatinib + Dasatinib; first compound 0.08 µM) of 0.357. It also gave a relative viability (Apatinib + Dasatinib; first compound 0.253 µM) of 0.349, a relative viability (Apatinib + Dasatinib; first compound 0.8 µM) of 0.351 and a relative viability (Apatinib + Dasatinib; first compound 2.53 µM) of 0.3. The relative viability (Apatinib + Dasatinib; first compound 8 µM) was 0.269.
